{"source": "patent US20140194477A1", "about": "“KINASE PROTEIN BINDING INHIBITORS” (Roswell Park Cancer Institute, priority 2011, published 2014)", "key": {"[1]": {"conditions": "literature report; cited from earlier work"}, "U87 cells": {"test_system": "U87 cells", "experiment": "Tumor growth in glioblastoma mouse model (subcutaneous U87 cells)", "type": "in vivo, mice", "conditions": "C4 50 mg/kg IP", "protocol": "(§1) Female SCID mice were purchased six weeks old and were maintained in an animal facility, and all experiments were performed in compliance with NIH animal use guidelines using IACUC protocol. The 2x10^6 U87 cells or GL261 cells were injected into mice subcutaneously. When tumor size reached 100 mm^3, drug was introduced by IP daily, 5 days per week for several weeks. Tumor diameters were measured with calipers and tumor volume in mm^3 was calculated using this formula: tumor volume=(width)^2×Length/2. At the end of the experiment, tumor weight and volume were determined. Tumor samples were collected for Western blotting and for immunohistochemical analysis. Endpoints of anti-tumor efficacy include: 1) differences in tumor size between treated and control animals at termination of the experiment (T/C % and T-C4anal/T-C4%) and 2) differences in blood vessel density and lymphatic vessel density. One hour following the last dose, tumor tissues were snap frozen and Erk1/2, Akt, FAK and VEGFR-3 phosphorylation, as well as total protein levels (to ensure equal loading), were determined ex vivo by Western blot. Tumor tissues were sectioned and stained for total and phosphorylated FAK and VEGFR-3 in addition to TUNEL staining (apoptosis), Ki67 (proliferation), CD31 (angiogenesis) and LYVE1 (lymphangiogenesis). Necropsy was performed to evaluate drug toxicity. Experiments were repeated at least in triplicate, and data were reported as mean ±standard error of the mean. An ANOVA or student's t-test was used as appropriate to compare data between groups. Statistical significance was determined at P<0.05."}, "U-87 cells": {"test_system": "U-87 cells", "experiment": "MTS/clonogenic antiproliferative and cell viability assay, U-87 cells", "type": "cell-based", "conditions": "Homo sapiens, U-87 MG, 72 hours, estimated from MTS and clonogenic assays", "method": "(§9) MTT assay protocol: Day 1: cells plated in 96-well plates. Day 2: chemical agents (DMSO) are added to the wells containing cells(in triplicate). Day 3: 100 μM of MTS reagent is added to each well; ager incubating the plates for an hour, readings are taken using a spectrometer."}, "GL261 cells": {"test_system": "GL261 cells", "experiment": "Tumor growth in glioma syngeneic mouse model (subcutaneous GL261 cells)", "type": "in vivo, mice", "conditions": "C4 50 mg/kg IP", "protocol": "as §1, with “Necropsy was performed to evaluate drug toxicity. Experiments were repeated at least in triplicate, and data were reported as mean ±standard error of the mean. An ANOVA or student's t-test was used as appropriate to compare data between groups.” left out"}, "FAK [2]": {"molecular_target": "T1, FAK (Homo sapiens, UniProt Q05397)", "T1 sequence (Q05397 whole entry)": "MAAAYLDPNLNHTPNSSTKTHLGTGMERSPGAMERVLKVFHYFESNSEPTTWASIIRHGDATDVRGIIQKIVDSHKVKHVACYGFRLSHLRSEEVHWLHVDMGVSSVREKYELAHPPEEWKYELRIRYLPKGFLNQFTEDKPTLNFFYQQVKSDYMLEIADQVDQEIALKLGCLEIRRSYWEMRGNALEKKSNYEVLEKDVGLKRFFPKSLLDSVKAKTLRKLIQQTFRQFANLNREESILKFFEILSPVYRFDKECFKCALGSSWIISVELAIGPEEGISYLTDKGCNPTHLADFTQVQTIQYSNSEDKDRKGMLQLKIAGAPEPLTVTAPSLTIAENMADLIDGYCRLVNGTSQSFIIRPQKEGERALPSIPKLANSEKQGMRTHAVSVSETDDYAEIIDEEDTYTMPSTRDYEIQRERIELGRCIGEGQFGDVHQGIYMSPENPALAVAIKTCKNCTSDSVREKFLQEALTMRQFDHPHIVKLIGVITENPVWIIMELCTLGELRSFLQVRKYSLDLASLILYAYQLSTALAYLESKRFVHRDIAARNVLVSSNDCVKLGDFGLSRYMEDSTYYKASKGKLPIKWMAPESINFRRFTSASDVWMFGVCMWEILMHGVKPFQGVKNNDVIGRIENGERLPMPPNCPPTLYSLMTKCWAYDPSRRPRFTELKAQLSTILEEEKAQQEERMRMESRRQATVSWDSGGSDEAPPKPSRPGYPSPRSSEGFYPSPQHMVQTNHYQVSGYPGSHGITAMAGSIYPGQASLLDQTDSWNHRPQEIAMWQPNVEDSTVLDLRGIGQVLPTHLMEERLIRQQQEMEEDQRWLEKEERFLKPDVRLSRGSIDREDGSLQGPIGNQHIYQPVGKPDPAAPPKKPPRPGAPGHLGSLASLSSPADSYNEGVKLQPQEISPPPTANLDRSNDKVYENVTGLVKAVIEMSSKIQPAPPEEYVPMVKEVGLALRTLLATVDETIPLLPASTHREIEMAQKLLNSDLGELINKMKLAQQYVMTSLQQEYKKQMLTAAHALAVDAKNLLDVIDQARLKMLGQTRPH", "experiment": "FAK Y397 phosphorylation", "type": "biochemical", "conditions": "various assays"}, "CD-1 mice": {"test_system": "CD-1 mice", "experiment": "7-day multiple-dose MTD toxicologic study of Suprastin (C4), oral gavage, CD-1 mice", "type": "in vivo", "protocol": "(§2) • A 7-day, multiple-dose maximum tolerated dose toxicologic study of the drug Suprastin (C4) was performed in CD-1 mice.\n(§3) • The drug Suprastin (C4) was the test article. The chemical name for Suprastin is chloropyramine hydrochloride or N-[(4-chlorophenyl) methyl]-N[2-(dimethylamino) ethyl] pyridin-2-amine. The test article was prepared in sterile water. The test article was prepared by the sponsor and delivered to the study director prior to the study. The test article was stored in the refrigerator (4° C.), protected from light. • Control article:\n(§4) The CD-1 [Hsd:ICR(CD-1)] albino mouse was used. The CD-1 mouse is conventionally used in toxicity tests to provide information on which human hazards can be judged, and is one of the choices of species preferred by regulatory agencies. Mice were obtained from Harlan (Frederick, Md.).\n(§5) Mice were acclimated for 2 days prior to testing. 20 male and 20 female mice, nulliparous and non-pregnant, were used. Normal weight gain, appearance and behavior were factors used to select healthy mice for testing. Only naive animals were used. Mice weighed 23-33 grams (males) and 19-26 grams (females), and were in good health at the start of the study. Mice weighed 22-35 grams (males) and 18-26 grams (females) at the conclusion of the study.\n(§6) Mice were randomly assigned to 4 experimental groups (controls, low-dose, medium-dose, and high-dose) consisting of 5 males and 5 females. Mice were identified via cage cards, tail markings, and ear punch. Mouse identification codes contained information regarding experimental group (C=control, L=low-dose, IVI=medium-dose, H=high-dose), sex (M−male, F−female), and animal number (1-5).\n(§7) • A 7-day multiple-dose MTD toxicology study was performed.\n(§8) • The test article Suprastin (C4) was prepared in sterile water and administered orally (PO) via orogastric gavage as a single daily dose on days 0-6 in the morning. The compound was diluted with the control article (sterile water) so as not to exceed a volume of […]. The test article (Suprastin) was stored in the refrigerator (4° C.) and allowed to come to room temperature prior to administration. Mice were randomly allocated into 4 groups (controls, low-dose, medium-dose, and high-dose) consisting of 5 males and 5 females. Dosages were calculated on a “per mouse” basis, not on a mg/kg basis. Mice in the low-dose group received the equivalent of a 75 mg/kg dose for a 20 g mouse (1.5 mg). Mice in the medium-dose group received the equivalent of a 150 mg/kg dose for a 20 g mouse (3 mg). Mice in the high-dose group received the equivalent of a 300 mg/kg dose for a 20 g mouse (6 mg). Mice in the control group received 100pL of the control article (sterile water). Groups received the following doses, drug concentrations, and gavage volumes, as outlined in Table 4: […]"}, "[3]": {"experiment": "7-day multiple-dose MTD toxicologic study of Suprastin (C4), oral gavage, CD-1 mice", "type": "in vivo", "conditions": "both sexes, CD-1, mouse, in vivo; oral gavage in mice, daily for 7 days", "protocol": "as §2, §3, §4, §5, §6, §7, §8"}, "DBTRG cells": {"test_system": "DBTRG cells", "experiment": "MTS/clonogenic antiproliferative and cell viability assay, DBTRG cells", "type": "cell-based", "conditions": "72 hours, estimated from MTS and clonogenic assays", "method": "as §9"}, "IGFR kinase": {"molecular_target": "IGFR kinase (Homo sapiens, UniProt P08069)", "sequence (P08069 31-1367)": "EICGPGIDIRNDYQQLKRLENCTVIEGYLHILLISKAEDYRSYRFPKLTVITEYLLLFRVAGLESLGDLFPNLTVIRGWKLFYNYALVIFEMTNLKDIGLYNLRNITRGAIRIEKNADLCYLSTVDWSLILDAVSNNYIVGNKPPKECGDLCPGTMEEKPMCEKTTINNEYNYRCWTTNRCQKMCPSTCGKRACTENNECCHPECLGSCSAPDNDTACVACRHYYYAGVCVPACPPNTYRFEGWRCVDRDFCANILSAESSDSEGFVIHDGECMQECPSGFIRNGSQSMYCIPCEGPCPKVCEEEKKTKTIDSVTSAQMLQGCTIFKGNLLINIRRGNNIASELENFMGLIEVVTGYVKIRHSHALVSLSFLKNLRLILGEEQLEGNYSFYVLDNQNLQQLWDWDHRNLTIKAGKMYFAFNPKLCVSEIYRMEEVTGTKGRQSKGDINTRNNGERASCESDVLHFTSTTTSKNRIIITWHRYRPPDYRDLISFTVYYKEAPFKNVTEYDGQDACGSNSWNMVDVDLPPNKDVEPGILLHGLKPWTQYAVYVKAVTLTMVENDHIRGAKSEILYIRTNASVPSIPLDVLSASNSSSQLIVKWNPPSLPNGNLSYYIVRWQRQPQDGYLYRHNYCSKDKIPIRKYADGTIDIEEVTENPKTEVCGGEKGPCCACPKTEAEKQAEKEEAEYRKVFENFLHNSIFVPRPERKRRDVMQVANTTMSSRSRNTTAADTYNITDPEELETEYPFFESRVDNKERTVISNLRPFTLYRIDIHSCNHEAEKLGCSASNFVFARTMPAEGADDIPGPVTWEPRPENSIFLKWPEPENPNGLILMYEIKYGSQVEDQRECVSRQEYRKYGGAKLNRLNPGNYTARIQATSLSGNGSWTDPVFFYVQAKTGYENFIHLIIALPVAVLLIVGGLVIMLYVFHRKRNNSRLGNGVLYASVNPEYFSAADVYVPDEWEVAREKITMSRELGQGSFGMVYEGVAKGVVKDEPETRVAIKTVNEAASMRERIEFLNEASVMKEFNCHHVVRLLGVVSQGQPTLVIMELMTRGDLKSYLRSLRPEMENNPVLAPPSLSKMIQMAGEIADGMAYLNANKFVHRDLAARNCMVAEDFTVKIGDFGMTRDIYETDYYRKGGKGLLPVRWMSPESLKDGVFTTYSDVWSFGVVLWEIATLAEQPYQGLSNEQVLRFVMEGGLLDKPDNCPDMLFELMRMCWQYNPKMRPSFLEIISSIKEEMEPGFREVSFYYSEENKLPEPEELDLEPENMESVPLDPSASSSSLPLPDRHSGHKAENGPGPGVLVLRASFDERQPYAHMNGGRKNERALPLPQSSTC", "conditions": "literature report; cited from earlier work"}, "FAK [4]": {"molecular_target": "T1, FAK", "conditions": "literature report; cited from earlier work"}, "glioma and ovarian tumor": {"test_system": "glioma and ovarian tumor", "conditions": "literature report; cited from earlier work"}}, "data": [{"smiles": "CS(=O)(=O)c1cccc(CNc2nc(Nc3ccc4c(c3)CCC(=O)N4)ncc2C(F)(F)F)c1", "note": "[PF-573,228]", "values": [{"measurement": "cell growth and survival in vitro", "setting": "[1]", "value": "did not inhibit cell growth and survival in vitro"}, {"measurement": "cell motility", "setting": "[1]", "value": "inhibited only motility"}]}, {"smiles": "CN(C)CCN(Cc1ccc(Cl)cc1)c1ccccn1", "note": "[C4, N′-[(4-chlorophenyl)methyl]-N,N-dimethyl-N′-pyridin-2-yl-ethane-1,2-diamine]", "values": [{"measurement": "tumor growth reduction (tumor weight)", "setting": "U87 cells; after 4 weeks of treatment", "value": 71.7, "unit": "%"}, {"measurement": "tumor volume smaller in the treated group", "setting": "U87 cells; after 4 weeks of treatment", "value": 58, "unit": "%"}, {"measurement": "size of treated tumors vs control group", "setting": "U87 cells; after 9 days of treatment", "value": "significantly smaller"}, {"measurement": "weight of treated tumors vs control group", "setting": "U87 cells; after 27 days of treatment", "value": "significantly smaller"}, {"measurement": "IC50", "setting": "U-87 cells", "value": "50 to 100", "unit": "µM"}, {"measurement": "tumor growth reduction (tumor weight)", "setting": "GL261 cells; after 3 weeks of treatment", "value": 57, "unit": "%"}, {"measurement": "weight of treated tumors vs control group", "setting": "GL261 cells; after 23 days of treatment", "value": "significantly smaller"}, {"measurement": "FAK dephosphorylation", "setting": "FAK [2]", "value": "specifically dephosphorylates FAK"}, {"measurement": "clinical signs, low- and medium-dose groups", "setting": "CD-1 mice; mouse, in vivo", "value": "slight ruffled fur"}, {"measurement": "toxicity findings, high-dose group", "setting": "CD-1 mice; mouse, in vivo, po, 300 mg/kg", "value": "weight loss, severe clinical signs of abdominal distention, and mortality due to gastrointestinal dilatation"}, {"measurement": "mortality and body weight, low- and medium-dose groups", "setting": "CD-1 mice; oral gavage daily days 0-6, 75 and 150 mg/kg", "value": "no mortality or decrement in mean body weight"}, {"measurement": "MTD at 7 days", "setting": "[3]", "value": "≥ 150", "unit": "mg/kg"}, {"measurement": "IC50", "setting": "DBTRG cells", "value": "50 to 100", "unit": "µM"}]}, {"smiles": "CNC(=O)c1ccccc1Nc1nc(Nc2ccc(N3CCOCC3)cc2OC)ncc1Cl", "note": "[TAE226]", "values": [{"measurement": "IGFR kinase inhibition", "setting": "IGFR kinase", "value": "inhibited IGFR kinase"}, {"measurement": "Y397-FAK phosphorylation", "setting": "FAK [4]", "value": "effectively blocked"}, {"measurement": "tumor growth in vivo", "setting": "glioma and ovarian tumor", "value": "inhibited glioma and ovarian tumor growth in vivo"}]}]}
